The values below come from ChEMBL document CHEMBL3102700, “Truncated norzoanthamine exhibiting similar collagen protection activity, toward a promising anti-osteoporotic drug” (Bioorg Med Chem Lett, 2014).

The source made the active and inactive calls. No cut-off for these calls is given here.

Test [1] in a line: Collagen protection activity of the compound assessed as residual collagen level after 180 mins by Sirius red colorimetric assay.
The nature of test [2]: Collagen protection activity of the compound assessed as residual collagen level at 1 uM after 180 mins by Sirius red colorimetric assay.
Test [3] is described as follows: Collagen protection activity of the compound assessed as residual collagen level at 10 uM after 180 mins by Sirius red colorimetric assay.
A short description of test [4]: Collagen protection activity of the compound assessed as residual collagen level at 0.1 uM after 180 mins by Sirius red colorimetric assay.

Turning to `CC1=CC(=O)CCC1`, the result in test [1] was inactive.

In the case of `COC(=O)C[C@@]1(C)[C@H]2C(=O)C[C@@H]3C(=O)C=C(C)C[C@H]3[C@]2(C)C=C2N3C[C@H]4C[C@H](C)C[C@]3(CC[C@]21C)O4`, in test [1], the result was inactive.

For the molecule `CC1=CC(=O)[C@H]2CC(=O)[C@H]3[C@@](C)(C[C@@]45OC(=O)C[C@]3(C)[C@]4(C)CC[C@]34C[C@@H](C)C[C@H](CN35)O4)[C@@H]2C1`, the Activity in test [2] was 40.4%; in test [3], 45%.

Consider `C[C@H]1C[C@@H]2CN3[C@](CC[C@@]4(C)[C@]5(C)CCC[C@]34OC(=O)C5)(C1)O2`, for which the Activity entry in test [1] was “Dose-dependent effect”; in test [2] it was 46.6%; in test [4], 40%; in test [3] it was 47.8%.
